Target: T1, PD-1/PD-L1 protein/protein interaction (Homo sapiens, UniProt Q9NZQ7)
T1 construct: Recombinant human PD-L1 protein (19-238) with a His-tag at the C-terminus; purchased AcroBiosystems PD1-H5229 (PD-L1); PD1-H5257 (PD-1)
Test: PD-1/PD-L1 homogenous time-resolved fluorescence (HTRF) binding assay
Experimental: Resolved Fluorescence (HTRF) Binding Assay
The assays were conducted in a standard black 384-well polystyrene plate with a final volume of […]. Inhibitors were first serially diluted in DMSO and then added to the plate wells before the addition of other reaction components. The final concentration of DMSO in the assay was 1%. The assays were carried out at 25° C. in the PBS buffer (pH 7.4) with 0.05% Tween-20 and 0.1% BSA. […] Plates were centrifuged and proteins were preincubated with inhibitors for 40 min. The incubation was followed by the addition of 10 μL of HTRF detection buffer supplemented with Europium cryptate-labeled anti-human IgG (PerkinElmer-AD0212) specific for Fc and anti-His antibody conjugated to SureLight®—Allophycocyanin (APC, PerkinElmer-AD0059H). After centrifugation, the plate was incubated at 25° C. for 60 min. […] Final concentrations in the assay were […] PD1, 10 nM PD-L1, 1 nM europium anti-human IgG and 20 nM anti-His-Allophycocyanin. IC50 determination was performed by fitting the curve of percent control activity versus the log of the inhibitor concentration using the GraphPad Prism 5.0 software.

T1 sequence (Q9NZQ7 19-238): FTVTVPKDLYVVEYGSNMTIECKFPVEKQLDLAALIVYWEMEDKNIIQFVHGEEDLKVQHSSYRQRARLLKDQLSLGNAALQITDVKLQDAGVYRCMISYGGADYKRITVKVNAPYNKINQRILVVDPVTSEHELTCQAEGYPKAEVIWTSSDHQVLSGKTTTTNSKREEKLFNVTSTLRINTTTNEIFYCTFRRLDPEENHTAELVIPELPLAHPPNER

IC50 [µM]	Structure (SMILES)
< 0.002	Cc1c(Nc2nccc3cc(CN4CCCCC4C(=O)O)cnc23)cccc1-c1cccc(OCCCNCC(=O)O)c1C (centres unmarked) [Compound 28, 1-((8-((3′-(3-((carboxymethyl)amino)propoxy)-2,2′-dimethyl-[1,1′-biphenyl]-3-yl)amino)-1,7-naphthyridin-3-yl)methyl)piperidine-2-carboxylic acid]
0.002 to 0.01	Cc1c(Nc2nccc3cc(CN4CCCCC4C(=O)O)cnc23)cccc1-c1cccc(OCCCN2CCCC2C(=O)O)c1C (centres unmarked) [Compound 29, 1-((8-((3′-(3-(2-carboxypyrrolidin-1-yl)propoxy)-2,2′-dimethyl-[1,1′-biphenyl]-3-yl)amino)-1,7-naphthyridin-3-yl)methyl)piperidine-2-carboxylic acid]
0.002 to 0.01	Cc1c(Nc2nccc3cc(CN4CCCCC4C(=O)O)cnc23)cccc1-c1cccc(OCCCN2CCC(C(=O)O)CC2)c1C (centres unmarked) [Compound 30, 1-((8-((3′-(3-(4-carboxypiperidin-1-yl)propoxy)-2,2′-dimethyl-[1,1′-biphenyl]-3-yl)amino)-1,7-naphthyridin-3-yl)methyl)piperidine-2-carboxylic acid]
0.01 to 0.15	Cc1c(Nc2nccc3cc(CN4CCCCC4C(=O)O)cnc23)cccc1-c1cccc(OCCN2CCOCC2)c1C (centres unmarked) [Compound 31, 1-((8-((2,2′-dimethyl-3′-(2-morpholinoethoxy)-[1,1′-biphenyl]-3-yl)amino)-1,7-naphthyridin-3-yl)methyl)piperidine-2-carboxylic acid]
> 0.15	Cc1c(Nc2nccc3cc(CN4CCCCC4C(=O)O)cnc23)cccc1-c1ccc2ccc(OCCN3CCOCC3)cc2c1 (centres unmarked) [Compound 32, 1-((8-((2-methyl-3-(7-(2-morpholinoethoxy)naphthalen-2-yl)phenyl)amino)-1,7-naphthyridin-3-yl)methyl)piperidine-2-carboxylic acid]
< 0.002	Cc1c(Nc2nccc3cc(CN4CCCCC4C(=O)O)cnc23)cccc1-c1cccc(OCCCNC2COC2)c1 (centres unmarked) [Compound 33, 1-((8-((2-methyl-3′-(3-(oxetan-3-ylamino)propoxy)-[1,1′-biphenyl]-3-yl)amino)-1,7-naphthyridin-3-yl)methyl)piperidine-2-carboxylic acid]
> 0.15	Cc1c(Nc2nccc3cc(CN4CCCCC4C(=O)O)cnc23)cccc1-c1cccc2c1ccn2CCCN1CCOCC1 (centres unmarked) [Compound 34, 1-((8-((2-methyl-3-(1-(3-morpholinopropyl)-1H-indol-4-yl)phenyl)amino)-1,7-naphthyridin-3-yl)methyl)piperidine-2-carboxylic acid]
> 0.15	Cc1c(Nc2nccc3cc(CN4CCCCC4C(=O)O)cnc23)cccc1-c1ccc2cc(CCN3CCOCC3)[nH]c2c1 (centres unmarked) [Compound 35, 1-((8-((2-methyl-3-(2-(2-morpholinoethyl)-1H-indol-6-yl)phenyl)amino)-1,7-naphthyridin-3-yl)methyl)piperidine-2-carboxylic acid]
0.002 to 0.01	Cc1c(Nc2nccc3cc(CN4CCCCC4C(=O)O)cnc23)cccc1-c1cccc(OCCCN2CCOCC2)c1 (centres unmarked) [Compound 36, 1-((8-((2-methyl-3′-(3-morpholinopropoxy)-[1,1′-biphenyl]-3-yl)amino)-1,7-naphthyridin-3-yl)methyl)piperidine-2-carboxylic acid]
0.002 to 0.01	Cc1c(Nc2nccc3cc(CN4CCCCC4C(=O)O)cnc23)cccc1-c1cccc(OCCCN2CCOCC2)c1F (centres unmarked) [Compound 37, 1-((8-((2′-fluoro-2-methyl-3′-(3-morpholinopropoxy)-[1,1′-biphenyl]-3-yl)amino)-1,7-naphthyridin-3-yl)methyl)piperidine-2-carboxylic acid]
0.002 to 0.01	Cc1c(Nc2nccc3cc(CN4CCCCC4C(=O)O)cnc23)cccc1-c1cccc(OCCCN2CCOCC2)c1Cl (centres unmarked) [Compound 38, 1-((8-((2′-chloro-2-methyl-3′-(3-morpholinopropoxy)-[1,1′-biphenyl]-3-yl)amino)-1,7-naphthyridin-3-yl)methyl)piperidine-2-carboxylic acid]
0.002 to 0.01	Cc1c(Nc2nccc3cc(CN4CCCCC4C(=O)O)cnc23)cccc1-c1cccc(OCCCN2CCOCC2)c1C#N (centres unmarked) [Compound 39, 1-((8-((2′-cyano-2-methyl-3′-(3-morpholinopropoxy)-[1,1′-biphenyl]-3-yl)amino)-1,7-naphthyridin-3-yl)methyl)piperidine-2-carboxylic acid]
0.002 to 0.01	Cc1c(Nc2nccc3cc(CN4CCCCC4C(=O)O)cnc23)cccc1-c1ccc(F)c(OCCCN2CCOCC2)c1 (centres unmarked) [Compound 40, 1-((8-((4′-fluoro-2-methyl-3′-(3-morpholinopropoxy)-[1,1′-biphenyl]-3-yl)amino)-1,7-naphthyridin-3-yl)methyl)piperidine-2-carboxylic acid]
> 0.15	Cc1ccc(-c2cccc(Nc3nccc4cc(CN5CCCCC5C(=O)O)cnc34)c2C)c(C)c1OCCCN1CCOCC1 (centres unmarked) [Compound 41, 1-((8-((2,2′,4′-trimethyl-3′-(3-morpholinopropoxy)-[1,1′-biphenyl]-3-yl)amino)-1,7-naphthyridin-3-yl)methyl)piperidine-2-carboxylic acid]
0.002 to 0.01	Cc1ccc(-c2cccc(Nc3nccc4cc(CN5CCCCC5C(=O)O)cnc34)c2C)cc1OCCCN1CCOCC1 (centres unmarked) [Compound 42, 1-((8-((2,4′-dimethyl-3′-(3-morpholinopropoxy)-[1,1′-biphenyl]-3-yl)amino)-1,7-naphthyridin-3-yl)methyl)piperidine-2-carboxylic acid]
0.002 to 0.01	Cc1c(Nc2nccc3cc(CN4CCCCC4C(=O)O)cnc23)cccc1-c1ccc(Cl)c(OCCCN2CCOCC2)c1 (centres unmarked) [Compound 43, 1-((8-((4′-chloro-2-methyl-3′-(3-morpholinopropoxy)-[1,1′-biphenyl]-3-yl)amino)-1,7-naphthyridin-3-yl)methyl)piperidine-2-carboxylic acid]
< 0.002	Cc1c(Nc2nccc3cc(CNCC(=O)O)cnc23)cccc1-c1ccc(Cl)c(OCCCN2CCOCC2)c1 [Compound 44, ((8-((4′-chloro-2-methyl-3′-(3-morpholinopropoxy)-[1,1′-biphenyl]-3-yl)amino)-1,7-naphthyridin-3-yl)methyl)glycine]
< 0.002	Cc1c(Nc2nccc3cc(CNCC(=O)O)cnc23)cccc1-c1cccc(OCCCN2CCOCC2)c1Cl [Compound 45, ((8-((2′-chloro-2-methyl-3′-(3-morpholinopropoxy)-[1,1′-biphenyl]-3-yl)amino)-1,7-naphthyridin-3-yl)methyl)glycine]
0.01 to 0.15	Cc1c(Nc2nccc3cc(CNCC(=O)O)cnc23)cccc1-c1cncc(OCCCN2CCOCC2)c1C [Compound 46, ((8-((2-methyl-3-(4-methyl-5-(3-morpholinopropoxy)pyridin-3-yl)phenyl)amino)-1,7-naphthyridin-3-yl)methyl)glycine]
< 0.002	Cc1c(COCCN2CCOCC2)cccc1-c1cccc(Nc2nccc3cc(CN4CCCCC4C(=O)O)cnc23)c1C (centres unmarked) [Compound 47, 1-((8-((2,2′-dimethyl-3′-((2-morpholinoethoxy)methyl)-[1,1′-biphenyl]-3-yl)amino)-1,7-naphthyridin-3-yl)methyl)piperidine-2-carboxylic acid]
0.002 to 0.01	Cc1c(NCCCN2CCOCC2)cccc1-c1cccc(Nc2nccc3cc(CN4CCCCC4C(=O)O)cnc23)c1C (centres unmarked) [Compound 48, 1-((8-((2,2′-dimethyl-3′-((3-morpholinopropyl)amino)-[1,1′-biphenyl]-3-yl)amino)-1,7-naphthyridin-3-yl)methyl)piperidine-2-carboxylic acid]
0.002 to 0.01	Cc1c(NC(=O)CCN2CCOCC2)cccc1-c1cccc(Nc2nccc3cc(CN4CCCCC4C(=O)O)cnc23)c1C (centres unmarked) [Compound 49, 1-((8-((2,2′-dimethyl-3′-(3-morpholinopropanamido)-[1,1′-biphenyl]-3-yl)amino)-1,7-naphthyridin-3-yl)methyl)piperidine-2-carboxylic acid]
> 0.15	Cc1c(Nc2nccc3cc(CN4CCCCC4C(=O)O)cnc23)cccc1-c1cccc(N(C)C(=O)CCN2CCOCC2)c1C (centres unmarked) [Compound 50, 1-((8-((2,2′-dimethyl-3′-(N-methyl-3-morpholinopropanamido)-[1,1′-biphenyl]-3-yl)amino)-1,7-naphthyridin-3-yl)methyl)piperidine-2-carboxylic acid]
> 0.15	Cc1c(NC(=O)NCCNCCO)cccc1-c1cccc(Nc2nccc3cc(CN4CCCCC4C(=O)O)cnc23)c1C (centres unmarked) [Compound 51, 1-((8-((3′-(3-(2-((2-hydroxyethyl)amino)ethyl)ureido)-2,2′-dimethyl-[1,1′-biphenyl]-3-yl)amino)-1,7-naphthyridin-3-yl)methyl)piperidine-2-carboxylic acid]
> 0.15	Cc1c(Nc2nccc3cc(CN4CCCCC4C(=O)O)cnc23)cccc1-c1cccc(N(C)CCCN2CCOCC2)c1C (centres unmarked) [Compound 52, 1-((8-((2,2′-dimethyl-3′-(methyl(3-morpholinopropyl)amino)-[1,1′-biphenyl]-3-yl)amino)-1,7-naphthyridin-3-yl)methyl)piperidine-2-carboxylic acid]
> 0.15	Cc1c(NC(=O)NCCN2CCOCC2)cccc1-c1cccc(Nc2nccc3cc(CN4CCCCC4C(=O)O)cnc23)c1C (centres unmarked) [Compound 53, 1-((8-((2,2′-dimethyl-3′-(3-(2-morpholinoethyl)ureido)-[1,1′-biphenyl]-3-yl)amino)-1,7-naphthyridin-3-yl)methyl)piperidine-2-carboxylic acid]

From patent publication US20210269440A1 (BETTA PHARMACEUTICALS CO., LTD, priority 2018, published 2021)
